The source made the active and inactive calls. No rule for the calls is given here.
What follows are molecules tested on IEC-6 rat intestinal epithelial cells, cytotoxicity, luminescence (assay: rat intestinal epithelial cell viability loss – luminescence, dose response, cytotoxicity control for KLF5 inhibitor project, late-stage follow-up (AID 2749)).

Row | Compound | IC50
1 | Cc1ccc2nc(NC(=O)CCCc3nc4ccccc4s3)sc2c1 | > 39.8 µM (inactive)
2 | c1ccc(-c2ccc(-c3nc(-c4ccccn4)no3)cc2)cc1 | 14.2 µM (inactive)
3 | CCOC(=O)c1sc(NC(=O)c2ccc3ncsc3c2)nc1C | > 39.8 µM (inactive)
4 | COc1ccc(OCc2cccc(C(=O)Nn3cc([N+](=O)[O-])cn3)c2)cc1 | > 39.8 µM (inactive)
5 | CN1CCN(c2ccc(-c3ccc4ccccc4n3)cc2)CC1 | 16.2 µM (inactive)
6 | CCCc1ccc(C(=O)O/N=C(\N)c2ccccn2)cc1 | > 39.8 µM (inactive)
7 | CCOC(=O)c1sc(NC(=O)c2cc3c(s2)CCC(C)C3)nc1C (centres undefined) | > 39.8 µM (inactive)
8 | CCCc1ccc(-c2ccc(/C=C/C(=O)O)cc2)nc1 | > 39.8 µM (inactive)
9 | COc1ccc(C(=O)Nc2ccccc2C(=O)NN=Cc2ccc(O)c(OC)c2)cc1 | > 39.8 µM (inactive)
10 | CC(C)(C)c1ccc(-c2noc(CCC(=O)Nc3cccnc3)n2)cc1 | > 39.8 µM (inactive)
11 | COC(=O)c1ccc2nc(Nc3nc4ccc(F)cc4s3)sc2c1 | > 39.8 µM (inactive)
12 | O=C(NCCc1ccccc1)c1ccc2c(c1)OCCCO2 | > 39.8 µM (inactive)
13 | CN(C(=O)COC(=O)/C=C/c1cccc([N+](=O)[O-])c1)C1CCS(=O)(=O)C1 (centres undefined) | 34.8 µM (inactive)
14 | CC(C)(C)c1ccc(C(=O)O/N=C(\N)c2ccccn2)cc1 | 25.5 µM (inactive)
15 | CC(C)(C)C(=O)Nc1cc2nn(-c3ccccc3)nc2cc1Cl | > 39.8 µM (inactive)
16 | CCOC(=O)c1sc(NC(=O)c2cc3ccccc3o2)nc1C | > 39.8 µM (inactive)
17 | O=C(NCCc1ccccc1F)c1ccc2c(c1)OCCO2 | > 39.8 µM (inactive)
18 | COc1cccc(C=NNc2ccc(C(=O)O)cc2)c1O | > 39.8 µM (inactive)
19 | Cc1cc(C(=O)CN2C(=O)c3ccccc3S2(=O)=O)c(C)n1CC1CCCO1 (centres undefined) | > 39.8 µM (inactive)
